This note sets out measurements from patent publication US11937601B2, “Method for treatment of soybean rust” (Globachem NV, priority 2020, dated 2024).

Test [1] deals with P. pachyrhizi. As to the kind of experiment: Field trial, defoliation percent of soybean naturally infected by soybean rust. In kind it is in vivo, Phakopsora pachyrhizi. As to the method:
(§1) A field trial was conducted to evaluate the effect and efficacy of zoxamide on soybean rust disease on soybean (Glycine max) wherein plants were naturally infected by the disease (P. pachyrhizi). The trial was divided in the following 11 treatments: • TREATMENT 1: One treatment where plants were left untreated and in which natural progression of the disease was observed; • TREATMENT 2: One reference treatment which consisted of chlorothalonil applied in 1.3 kg/ha; • TREATMENT 3: One reference treatment which consisted of treatment with prothioconazole applied in 75 g/ha. • TREATMENT 4: One reference treatment with the mixture of prothioconazole and trifloxystrobin applied in amount of 70 g/ha of prothioconazole and 60 g/ha of trifloxystrobin. • TREATMENT 5: One reference treatment with wherein tebuconazole was applied in amount of 83.3 g/ha; mancozeb in amount of 1000 g/ha and picoxystrobin in amount of 66.6 g/ha. All four reference treatments (TREATMENTS 2-5) are currently available treatments of soybean rust, wherein the mentioned compositions were prepared from commercially available products prepared according to the respective label instructions and sprayed on the plants in amounts mentioned above and in Table 1 and 2. TREATMENTS 6-8: Three treatments wherein zoxamide was applied in different doses of (6) 180 g/ha, (7) 120 g/ha, and (8) 90 g/ha. TREATMENTS 9-11: Three treatments wherein zoxamide was applied together with prothioconazole in the following doses: (9) zoxamide 180 g/ha and prothioconazole 75 g/ha; (10) zoxamide 120 g/ha and prothioconazole 75 g/ha; and (11) zoxamide 90 g/ha and prothioconazole 75 g/ha. Each of the above treatments was applied on a plot of 3 meters by 6 meters in size and was repeated in 4 replicates. Zoxamide compositions used in this trial were prepared from the suspension concentrate containing 240 g/L of zoxamide, diluted with water to predetermined concentration, vegetable oil was added to concentration of 0.25% V/V, and such composition was sprayed on the plants in the predetermined amounts. First application of respective treatments was made when soybean plant reached BBCH growth stages around 60 to 75. Growth stages were defined according to Compendium of Growth Stage Identification Keys for Mono- and Dicotyledonous Plants, Extended BBCH scale, 2nd Edition 1997, ISBN 3-9520749-3-4. For each treatment, two applications of the respective treatment were made with 14 days interval between. Disease spread and defoliation were evaluated by visual estimation of degree of infection on leaves and defoliation. In Table 1 and Table 2, the following terms have the following meaning: % S—severity; % E—efficacy; 0.0%—disease progressed to maximum; 100.0%—no disease symptoms observed.

Test [2] has as its system P. pachyrhizi. Kind of test: Field trial, soybean rust severity and efficacy on naturally infected soybean. It is filed as in vivo, Phakopsora pachyrhizi. On the procedure:
as §1

The mark [3] stands for this setting: 21 days after second application, zoxamide 90 g/ha.
Where [4] appears, read: 21 days after second application, zoxamide 120 g/ha.
[5] abbreviates: 21 days after second application, zoxamide 180 g/ha.
[6] abbreviates: 28 days after second application, zoxamide 90 g/ha.
[7] abbreviates: 28 days after second application, zoxamide 120 g/ha.
[8] abbreviates: 28 days after second application, zoxamide 180 g/ha.
Where [9] appears, read: 7 days after first application, zoxamide 90 g/ha.
[10] abbreviates: 7 days after first application, zoxamide 120 g/ha.
Setting [11] is: 7 days after first application, zoxamide 180 g/ha.
[12] abbreviates: 7 days after second application, zoxamide 90 g/ha.
Setting [13] is: 7 days after second application, zoxamide 120 g/ha.
Where [14] appears, read: 7 days after second application, zoxamide 180 g/ha.
Where [15] appears, read: 14 days after first application, zoxamide 90 g/ha.
Where [16] appears, read: 14 days after first application, zoxamide 120 g/ha.
Where [17] appears, read: 14 days after first application, zoxamide 180 g/ha.
Where [18] appears, read: 14 days after second application, zoxamide 90 g/ha.
Setting [19] is: 14 days after second application, zoxamide 120 g/ha.
[20] abbreviates: 14 days after second application, zoxamide 180 g/ha.
[21] abbreviates: 21 days after second application, prothioconazole 75 g/ha.
[22] abbreviates: 28 days after second application, prothioconazole 75 g/ha.
Where [23] appears, read: 7 days after first application, prothioconazole 75 g/ha.
Where [24] appears, read: 7 days after second application, prothioconazole 75 g/ha.
Setting [25] is: 14 days after first application, prothioconazole 75 g/ha.
The mark [26] stands for this setting: 14 days after second application, prothioconazole 75 g/ha.
Where [27] appears, read: 21 days after second application, chlorothalonil 1296 g/ha.
Where [28] appears, read: 28 days after second application, chlorothalonil 1296 g/ha.
Where [29] appears, read: 7 days after first application, chlorothalonil 1296 g/ha.
[30] abbreviates: 7 days after second application, chlorothalonil 1296 g/ha.
The mark [31] stands for this setting: 14 days after first application, chlorothalonil 1296 g/ha.
The mark [32] stands for this setting: 14 days after second application, chlorothalonil 1296 g/ha.

For `CCC(C)(NC(=O)c1cc(Cl)c(C)c(Cl)c1)C(=O)CCl` (stereo not shown) [ZOXAMIDE, 3,5-dichloro-N-(3-chloro-1-ethyl-1-methyl-2-oxopropyl)-4-methyl benzamide], the Defoliation % in the test on P. pachyrhizi [1] (setting [3]) was 52.50%; in the test on P. pachyrhizi [1] (setting [4]), 48.75%; with P. pachyrhizi [1] (setting [5]) it was 42.50%; in the test on P. pachyrhizi [1] (setting [6]) it was 70.00%; in the test on P. pachyrhizi [1] (setting [7]), 60.00%; in the test on P. pachyrhizi [1] (setting [8]) it was 51.25%. Further, the “Efficacy % (defoliation)” value in the test on P. pachyrhizi [1] (setting [3]) was 35.38%; with P. pachyrhizi [1] (setting [4]), 40.00%; in the test on P. pachyrhizi [1] (setting [5]), 47.69%; in the test with P. pachyrhizi [1] (setting [6]), 30.00%; in the test on P. pachyrhizi [1] (setting [7]), 40.00%; in the test with P. pachyrhizi [1] (setting [8]), 48.75%. The “% E (efficacy)” value was found to be 100.00% with P. pachyrhizi [2] (setting [9]); 100.00% with P. pachyrhizi [2] (setting [10]); 100.00% in the test with P. pachyrhizi [2] (setting [11]); 85.88% with P. pachyrhizi [2] (setting [12]); 100.00% with P. pachyrhizi [2] (setting [13]); 100.00% with P. pachyrhizi [2] (setting [14]). Also, the “% E (efficacy)” value in the test on P. pachyrhizi [2] (setting [15]) is 100.00%; with P. pachyrhizi [2] (setting [16]), 100.00%; in the test on P. pachyrhizi [2] (setting [17]) it was 100.00%; with P. pachyrhizi [2] (setting [18]) it was 76.47%; with P. pachyrhizi [2] (setting [19]) it was 85.88%; with P. pachyrhizi [2] (setting [20]), 100.00%. The “% E (efficacy)” value with P. pachyrhizi [2] (setting [3]) worked out at 70.27%; with P. pachyrhizi [2] (setting [4]) it was 81.08%; in the test on P. pachyrhizi [2] (setting [5]), 90.27%. For the same molecule, the “% S (severity)” value came out at 0.00% in the test on P. pachyrhizi [2] (setting [9]); 0.00% with P. pachyrhizi [2] (setting [10]); 0.00% with P. pachyrhizi [2] (setting [11]); 3.00% in the test on P. pachyrhizi [2] (setting [12]); 0.00% in the test with P. pachyrhizi [2] (setting [13]); 0.00% in the test with P. pachyrhizi [2] (setting [14]). The “% S (severity)” value is reported as 0.00% in the test on P. pachyrhizi [2] (setting [15]); 0.00% in the test with P. pachyrhizi [2] (setting [16]); 0.00% in the test on P. pachyrhizi [2] (setting [17]); 5.00% in the test on P. pachyrhizi [2] (setting [18]); 3.00% in the test with P. pachyrhizi [2] (setting [19]); 0.00% with P. pachyrhizi [2] (setting [20]). Moreover, the “% S (severity)” value with P. pachyrhizi [2] (setting [3]) is 13.75%; in the test with P. pachyrhizi [2] (setting [4]) it was 8.75%; in the test on P. pachyrhizi [2] (setting [5]) it was 4.50%.
Take `OC(Cc1ccccc1Cl)(Cn1nc[nH]c1=S)C1(Cl)CC1` (stereo not shown) [PROTHIOCONAZOLE, prothioconazole]: the results for the Defoliation % with P. pachyrhizi [1] (setting [21]) and in the test with P. pachyrhizi [1] (setting [22]) were 50.00% and 70.00%, respectively. In addition, the “Efficacy % (defoliation)” value in the test with P. pachyrhizi [1] (setting [21]) is on record as 38.46%; with P. pachyrhizi [1] (setting [22]), 30.00%. In addition, the “% E (efficacy)” value with P. pachyrhizi [2] (setting [23]) was found to be 100.00%; in the test on P. pachyrhizi [2] (setting [24]) it was 85.88%; in the test with P. pachyrhizi [2] (setting [25]), 100.00%; with P. pachyrhizi [2] (setting [26]), 85.88%; with P. pachyrhizi [2] (setting [21]), 62.16%. For the same molecule, the “% S (severity)” value with P. pachyrhizi [2] (setting [23]) stood at 0.00%; in the test with P. pachyrhizi [2] (setting [24]), 3.00%; with P. pachyrhizi [2] (setting [25]), 0.00%; in the test with P. pachyrhizi [2] (setting [26]), 3.00%; with P. pachyrhizi [2] (setting [21]) it was 17.50%.
On to `N#Cc1c(Cl)c(Cl)c(Cl)c(C#N)c1Cl` [CHLOROTHALONIL, chlorothalonil], for which the Defoliation % was 50.00% in the test with P. pachyrhizi [1] (setting [27]) and 60.00% in the test on P. pachyrhizi [1] (setting [28]). The “Efficacy % (defoliation)” value in the test with P. pachyrhizi [1] (setting [27]) turned out to be 38.46%; in the test with P. pachyrhizi [1] (setting [28]) it was 40.00%. The “% E (efficacy)” value in the test on P. pachyrhizi [2] (setting [29]) came to 100.00%; in the test with P. pachyrhizi [2] (setting [30]) it was 76.47%; in the test with P. pachyrhizi [2] (setting [31]), 66.67%; in the test with P. pachyrhizi [2] (setting [32]), 76.47%; with P. pachyrhizi [2] (setting [27]) it was 68.11%. Moreover, the “% S (severity)” value in the test on P. pachyrhizi [2] (setting [29]) is given as 0.00%; in the test on P. pachyrhizi [2] (setting [30]), 5.00%; with P. pachyrhizi [2] (setting [31]) it was 5.00%; in the test on P. pachyrhizi [2] (setting [32]), 5.00%; with P. pachyrhizi [2] (setting [27]), 14.75%.
